From PubChem BioAssay AID1159563 (GlaxoSmithKline (GSK), 2015)
Activity calls are given as the source filed them. How the calls were made is not given here.

test system: HepG2 cytotoxicity; assay: human hepatoma cell viability loss – cytotoxicity control (AID 1159563)

Row | SMILES | IC50
1 | CN(Cc1nc2ccccc2s1)C(=O)C=Cc1cc2ccccc2o1 | > 100 µM (inactive)
2 | NC(=O)c1cc(F)ccc1Nc1nc(NC2CCC(O)CC2)ncc1Cl (stereo unspecified) | > 100 µM (inactive)
3 | O=C(Nc1nc2ccccc2[nH]1)c1ccc2nc[nH]c2c1 | 50 µM
4 | N#Cc1nc(C=Cc2ccccc2)oc1NCc1cccnc1 | > 100 µM (inactive)
5 | Cn1nc(C(=O)N2CCc3ccccc32)c2c1CCS(=O)(=O)C2 | > 100 µM (inactive)
6 | COCc1cc(Nc2ccc(Cl)cc2)nc(-c2ccccn2)n1 | 13 µM
7 | Cc1ccccc1OCC(=O)N1CCCN(c2cccnn2)CC1 | > 100 µM (inactive)
8 | O=C(Cn1cnc2cc([N+](=O)[O-])ccc2c1=O)NCCc1ccc(Cl)cc1Cl | > 100 µM (inactive)
9 | Cc1c(Nc2cc(C3CC3)[nH]n2)ccc(C#N)c1Cl | 40 µM
10 | Cc1ccccc1NS(=O)(=O)c1ccc2[nH]cc(C(=O)NC3CCCC(C)C3C)c(=O)c2c1 (stereo unspecified) | 40 µM
11 | COc1ccc2ncc(=O)n(CCN3CC[C@H](NCc4ncc(Cl)c5[nH]ncc45)[C@H](O)C3)c2n1 | > 100 µM (inactive)
12 | Cc1nn2c(NCCCO)c3c(nc2c1-c1cccs1)CCC3 | > 100 µM (inactive)
13 | CCCCCNC(=O)c1c[nH]c2ccc(S(=O)(=O)N(C)c3ccc(OCC)cc3)cc2c1=O | > 100 µM (inactive)
14 | CC(C)(C)c1csc(NC(=O)c2ccc([N+](=O)[O-])s2)n1 | 50 µM
15 | CN(C(=O)Nc1ccc2c(c1)CCN(C1CCC1)CC2)c1ccc(C#N)cc1 | > 100 µM (inactive)
16 | Cc1cccc(Nc2nc(-c3ccccn3)cs2)n1 | 40 µM
17 | Cc1ccc(-c2csc(NC(=O)C=Cc3ccc(S(=O)(=O)N4CCOCC4)cc3)n2)o1 | > 100 µM (inactive)
18 | CCN(CC)c1ncc(C(=O)c2ccc([N+](=O)[O-])o2)s1 | 16 µM
19 | Cc1cc(NC(=O)C2CCCCC2)n(-c2nc3c(c(=O)[nH]2)CCC3)n1 | 50 µM
20 | Cn1cncc1CN1CCC2(CC1)COC(Cc1ccccc1)C2 (stereo unspecified) | > 100 µM (inactive)
21 | CCc1cc(C(=O)Nc2nccn2-c2ccccc2)cs1 | > 100 µM (inactive)
22 | CCC(CC)C(=O)Nc1cccc(C(=O)Nc2nnc(C3CCCCC3)s2)c1 | > 100 µM (inactive)
23 | O=C(CSc1nnc(-c2ccc3c(c2)OCO3)o1)N(Cc1ccco1)CC(F)(F)F | > 100 µM (inactive)
24 | CCC(=O)Nc1ccccc1C(=O)Nc1ccccn1 | > 100 µM (inactive)
25 | Cn1nc(-c2ccc(NC(=O)Cc3ccccc3Cl)cc2)c2c(N)ncnc21 | > 100 µM (inactive)
26 | COc1cc(NC(=O)Nc2cccc(CNC(=O)OC3CCCCC3)c2)ccc1-c1cnco1 | 40 µM

Row | SMILES | IC50
27 | Cc1ccc(S(=O)(=O)Cn2nnnc2C(c2cccnc2)N2CCN(c3ccccc3)CC2)cc1 (stereo unspecified) | > 100 µM (inactive)
28 | OC1CCC(Nc2nccc(-c3sc(C4CCOCC4)nc3-c3ccc(F)c(F)c3)n2)CC1 (stereo unspecified) | 25 µM
29 | CC(C(=O)Nc1ccc(Br)cc1)N1CCN(c2ccc([N+](=O)[O-])cc2)CC1 (stereo unspecified) | > 100 µM (inactive)
30 | O=C(Cn1cnc([N+](=O)[O-])n1)Nc1ccc(Cl)cc1C(=O)c1ccccc1 | > 100 µM (inactive)
31 | O=C1CN(C2CCCc3c(OCc4ccncc4)cccc32)C(=O)N1C1CCCCC1 (stereo unspecified) | > 100 µM (inactive)
32 | O=C1OCc2ccc(Nc3nccc(-c4cnn5ncccc45)n3)cc21 | > 100 µM (inactive)
33 | N#Cc1cc(N2CCCC2=O)ccc1Sc1ccccc1CO | > 100 µM (inactive)
34 | N#Cc1cccc(Nc2nccc(N3CCC(NS(=O)(=O)c4cccc(C#N)c4)CC3)n2)c1 | 50 µM
35 | COc1ccc2ncc(=O)n(CCN3CCC(NCc4ccc(-c5cccs5)cc4)CC3)c2n1 | 13 µM
36 | Cc1nccn1C1CCCN(C(=O)c2cc3c(F)cccc3s2)C1 (stereo unspecified) | > 100 µM (inactive)
37 | NCc1csc(Nc2cc(Oc3ccccc3)ncn2)n1 | > 100 µM (inactive)
38 | O=S(=O)(NCC(c1cccnc1)N1CCN(c2ccccc2F)CC1)c1ccc(F)cc1 (stereo unspecified) | > 100 µM (inactive)
39 | Cc1ccc(NC(=O)c2ccc([N+](=O)[O-])s2)cc1S(=O)(=O)N1CCOCC1 | 16 µM
40 | c1ccc2sc(Nc3nc4ncccc4[nH]3)nc2c1 | 20 µM
41 | CC(CCc1ccccc1)NC(=O)CN(Cc1ccccn1)Cc1ccccn1 (stereo unspecified) | > 160 µM (inactive)
42 | NCC(Cc1ccccc1)NC(=O)c1cnc(-c2c[nH]c3ncccc23)s1 (stereo unspecified) | 79 µM
43 | COc1cccc(CCNC(=O)C(c2cn[nH]c2)N2CCN(c3ccc(Cl)cc3)CC2)c1 (stereo unspecified) | 50 µM
44 | Cc1ccc(NC(=O)c2ccnc(N3CCCC3)c2)cc1-c1cc(C(N)=O)ccc1C | > 100 µM (inactive)
45 | Cn1nc([N+](=O)[O-])nc1N1CCCCC1 | > 100 µM (inactive)
46 | O=C(CN(Cc1ccccn1)Cc1ccccn1)NCc1ccc2c(c1)OCO2 | > 160 µM (inactive)
47 | CN(C)CCN(C)Cc1ccc(F)cc1NS(=O)(=O)c1ccc(Cl)c(Cl)c1 | 40 µM
48 | O=C(NCC1CCCCN1C(=O)c1cccc2ccccc12)c1ccccc1 (stereo unspecified) | > 100 µM (inactive)
49 | CCC1Oc2cc(S(=O)(=O)N(C)CC(=O)N3CCc4ccccc4C3)c(C)cc2NC1=O (stereo unspecified) | > 100 µM (inactive)
50 | CCN(CC)S(=O)(=O)c1ccc(C(=O)Nc2cc(C)nn2-c2nc(C)c(C)c(=O)[nH]2)cc1 | > 100 µM (inactive)
51 | Cc1ccc(S(=O)(=O)Nc2ccc(CN3CCN(C(=O)c4cccc(C)c4)CC3)cc2)cc1 | > 100 µM (inactive)
